Experimental data reported in paper PMC10709440, “High-throughput ligand profile characterization in novel cell lines expressing seven heterologous insect olfactory receptors for the detection of volatile plant biomarkers” (Scientific Reports, 2023).
Like-named read-outs stand apart in the source and are kept apart here.

Tests used:
Drosophila OR49b = biological target: T1, Drosophila OR49b (Drosophila melanogaster, UniProt Q9V6H2); assay: cell-based; conditions: for Average response / OR49b response (VUAA1-normalized) at 1 μM / OR49b response (VUAA1-normalized) at 10 μM / OR49b response (VUAA1-normalized) at 100 μM: OR49b cell line; for Average response: mean of biological replicates; for DF norm AVERAGE OR49b: threshold 0.05, below shown as 0; for activation at 1 µM / activation at 10 µM / activation at 100 µM: HEK293, 50 μM VUAA1 = 1, read-out: OR49b Average response (VUAA1-normalized); for activation at 1 µM: 1 μM VOC; for activation at 10 µM: 10 μM VOC; for activation at 100 µM: 100 μM VOC
T1 construct: expressed in transfected cells
T1 sequence (Q9V6H2 1-375): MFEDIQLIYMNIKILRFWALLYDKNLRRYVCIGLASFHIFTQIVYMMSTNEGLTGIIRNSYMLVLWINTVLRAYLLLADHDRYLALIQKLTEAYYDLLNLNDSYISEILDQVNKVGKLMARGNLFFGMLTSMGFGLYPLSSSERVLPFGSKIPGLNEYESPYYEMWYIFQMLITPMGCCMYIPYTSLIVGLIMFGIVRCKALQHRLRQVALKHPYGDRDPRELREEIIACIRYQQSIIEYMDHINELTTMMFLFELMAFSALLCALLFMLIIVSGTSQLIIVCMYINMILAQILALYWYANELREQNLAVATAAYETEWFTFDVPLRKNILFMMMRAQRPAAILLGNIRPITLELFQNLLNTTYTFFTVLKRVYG
T1 sequence (Q9VNB5 1-486 partner): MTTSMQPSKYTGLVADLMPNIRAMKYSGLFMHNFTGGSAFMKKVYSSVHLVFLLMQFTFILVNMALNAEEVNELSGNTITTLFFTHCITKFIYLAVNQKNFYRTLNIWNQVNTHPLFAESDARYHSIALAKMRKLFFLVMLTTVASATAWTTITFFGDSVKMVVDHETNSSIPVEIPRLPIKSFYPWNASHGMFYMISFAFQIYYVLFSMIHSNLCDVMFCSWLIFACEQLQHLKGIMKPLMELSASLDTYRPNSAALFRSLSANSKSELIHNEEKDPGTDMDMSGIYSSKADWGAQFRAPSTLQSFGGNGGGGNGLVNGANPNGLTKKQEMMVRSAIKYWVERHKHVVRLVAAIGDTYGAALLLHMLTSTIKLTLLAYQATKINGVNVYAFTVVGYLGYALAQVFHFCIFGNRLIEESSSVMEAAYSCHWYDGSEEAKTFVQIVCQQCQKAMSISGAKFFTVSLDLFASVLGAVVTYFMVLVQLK
How it was run: (§1)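 HEK293 lines stably expressing each Drosophila OR with GCaMP6, doxycycline-induced (1 μg/mL) 48 or 72 h. Fluorescence recorded 5 s baseline then 30 s after VOC injection at pH 7.3; ΔF=(FMAX−F0)/F0, normalized to 50 µM VUAA1 response per line, triplicate wells averaged; concentration series 0.01–100 μM.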

Drosophila OR98a = biological target: T2, Drosophila OR98a (Drosophila melanogaster, UniProt Q9VAZ3); assay: Calcium ion fluorescence (GCaMP6) assay, OR98a stable HEK293 cell line; type: cell-based; conditions: for Average response / OR98a response (VUAA1-normalized) at 1 μM / OR98a response (VUAA1-normalized) at 10 μM / OR98a response (VUAA1-normalized) at 100 μM: OR98a cell line; for Average response: average of biological replicates, fraction of VUAA1 response; for DF norm AVERAGE OR98a: threshold 0.05, below shown as 0
T2 construct: expressed in transfected cells
T2 sequence (Q9VAZ3 1-397): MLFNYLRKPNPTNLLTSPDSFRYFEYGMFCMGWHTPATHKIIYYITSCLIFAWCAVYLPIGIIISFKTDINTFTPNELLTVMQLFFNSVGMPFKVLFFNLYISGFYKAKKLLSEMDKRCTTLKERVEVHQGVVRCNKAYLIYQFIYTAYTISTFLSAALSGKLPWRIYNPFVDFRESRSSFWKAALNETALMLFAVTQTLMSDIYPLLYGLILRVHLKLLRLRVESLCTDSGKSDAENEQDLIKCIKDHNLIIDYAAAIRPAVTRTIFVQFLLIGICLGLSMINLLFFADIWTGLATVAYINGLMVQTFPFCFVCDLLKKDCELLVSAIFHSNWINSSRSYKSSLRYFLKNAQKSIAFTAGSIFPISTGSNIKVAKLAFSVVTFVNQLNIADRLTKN
T2 sequence (Q9VNB5 1-486 partner): T1 sequence (Q9VNB5 1-486 partner)
How it was run: as §1

[1] = ligand concentration 1 (unit not given)
[2] = ligand concentration 10 (unit not given)
[3] = ligand concentration 100 (unit not given)
[4] = HEK293, read-out: Average response
[5] = HEK293, read-out: OR98a Average response (VUAA1-normalized)

Structure (SMILES)	Average response (Drosophila OR49b; odorant cc. 1 µM)	Average response (Drosophila OR49b; odorant cc. 10 µM)	Average response (Drosophila OR49b; odorant cc. 100 µM)	DF norm AVERAGE OR49b (Drosophila OR49b; [1])	DF norm AVERAGE OR49b (Drosophila OR49b; [2])	DF norm AVERAGE OR49b (Drosophila OR49b; [3])	DF norm AVERAGE OR98a (Drosophila OR98a; [1])	DF norm AVERAGE OR98a (Drosophila OR98a; [2])	DF norm AVERAGE OR98a (Drosophila OR98a; [3])	OR49b response (VUAA1-normalized) at 1 μM (Drosophila OR49b; VOC concentration 1 μM)	OR49b response (VUAA1-normalized) at 10 μM (Drosophila OR49b; VOC concentration 10 μM)	OR49b response (VUAA1-normalized) at 100 μM (Drosophila OR49b; VOC concentration 100 μM)	activation at 1 µM (Drosophila OR98a; [4])	activation at 10 µM (Drosophila OR98a; [4])	activation at 100 µM (Drosophila OR98a; [4])	OR98a response (VUAA1-normalized) at 1 μM (Drosophila OR98a; VOC concentration 1 μM)	OR98a response (VUAA1-normalized) at 10 μM (Drosophila OR98a; VOC concentration 10 μM)	OR98a response (VUAA1-normalized) at 100 μM (Drosophila OR98a; VOC concentration 100 μM)	activation at 1 µM (Drosophila OR49b)	activation at 10 µM (Drosophila OR49b)	further results
C=C(C)[C@H]1CC=C(C)CC1 [limonene]	0.00	0.00	0.028	0	0	0	0	0	0												OR49b response (VUAA1-normalized response) (Drosophila OR49b; VOC concentration 1 μM): 0.00; OR49b response (VUAA1-normalized response) (Drosophila OR49b; VOC concentration 10 μM): 0.00; OR49b response (VUAA1-normalized response) (Drosophila OR49b; VOC concentration 100 μM): 0.00; OR98a response (VUAA1-normalized response) (Drosophila OR98a; VOC concentration 1 μM): 0.00; OR98a response (VUAA1-normalized response) (Drosophila OR98a; VOC concentration 10 μM): 0.00; OR98a response (VUAA1-normalized response) (Drosophila OR98a; VOC concentration 100 μM): 0.00; Average response (Drosophila OR98a; cc. 1 µM): 0.00; Average response (Drosophila OR98a; cc. 10 µM): 0.02; Average response (Drosophila OR98a; cc. 100 µM): 0.0268
C=CC(C)(O)CCC=C(C)C (stereo not drawn) [linalool]	0.00	0.00	0.0212	0	0	0	0	0	0	0.00	0.00	0.00	0%	0%	4%	0.00	0.00	0.00			
Cc1cccc(C)c1 [m-xylene]	0.00	0.0251	0.27	0	0	0.2713	0	0	0	0.00	0.00	0.27	0%	0%	2.54%	0.00	0.00	0.00	0%	3%	activation at 100 µM (Drosophila OR49b): 27%
COC(=O)c1ccccc1 [methyl benzoate]	0.13	0.00	0.05	0.1337	0	0	0.07495	0	0.1166	0.13	0.00	0.00	7.5%	0%	12%	0.075	0.00	0.12			activation at 1 µM (Drosophila OR98a; [5]): 7%; activation at 10 µM (Drosophila OR98a; [5]): 0%; activation at 100 µM (Drosophila OR98a; [5]): 12%
COC(=O)c1ccccc1O [methyl salicylate]	0.0269	0.00333	0.12	0	0	0.1238	0	0	0	0.00	0.00	0.12	3%	1.79%	4%	0.00	0.00	0.00	3%	0%	activation at 100 µM (Drosophila OR49b): 12%
